ChEMBL document CHEMBL5352497, “Aromatic hydrazides: A potential solution for Acinetobacter baumannii infections” (Eur J Med Chem, 2023)
In brackets after ≈: the same amount, converted by molar mass. Activity calls are given as the source filed them.

Columns and labels:
Bacillus anthracis = assay: Antibacterial activity against Bacillus anthracis Sterne F32; format: functional
Staphylococcus aureus = assay: Antibacterial activity against Staphylococcus aureus ATCC 25923; format: functional
[1] = tested on: Staphylococcus epidermidis; assay: Antibacterial activity against Staphylococcus epidermidis ATCC 12228; format: functional
Escherichia coli = assay: Antibacterial activity against Escherichia coli MC1061; format: functional
Klebsiella pneumoniae = assay: Antibacterial activity against Klebsiella pneumoniae ATCC 27736; format: functional
Salmonella enterica = assay: Antibacterial activity against Salmonella enterica ATCC 14028; format: functional
Acinetobacter baumannii [2] = assay: Antibacterial activity against Acinetobacter baumannii ATCC 19606; format: functional
Acinetobacter baumannii [3] = assay: Antibacterial activity against Acinetobacter baumannii BAA1605; format: functional
Acinetobacter baumannii [4] = assay: Bacteriostatic activity against Acinetobacter baumannii ATCC 19606 assessed as reduction in colony forming unit incubated for 9 hrs; format: functional, organism-based
Acinetobacter baumannii [5] = assay: Bacteriostatic activity against Acinetobacter baumannii ATCC 19606 assessed as reduction in colony forming unit incubated for 24 hrs; format: functional, organism-based
[6] = Hemolytic activity in mouse RBC at 8 ug/ml incubated for 1 hr; format: toxicity, cell-based, Erythrocyte; details: red blood cells (erythrocytes), at 8 µg/mL, read-out: Activity
Erythrocyte = assay: (§1) Hemolytic activity in mouse RBC at 32 ug/ml incubated for 1 hr; format: toxicity, cell-based; details: erythrocyte, 1 h, dose 32 µg/ml
Acinetobacter baumannii [7] = assay: microbe, parasite or virus in culture; details: ATCC 19606
HEK293 [8] = assay: Cytotoxicity against HEK293 cells at 8 ug/ml; format: toxicity, cell-based; details: human, dose 8 µg/ml
HEK293 [9] = assay: Cytotoxicity against HEK293 cells at 32 ug/ml; format: toxicity, cell-based; details: human, at 32 µg/mL
[10] = as §1; format: toxicity, cell-based, Erythrocyte; details: red blood cells (erythrocytes), at 32 µg/mL, read-out: Activity
Enterobacter cloacae = assay: Antibacterial activity against Enterobacter cloacae ATCC 13047; format: functional
Pseudomonas aeruginosa = assay: Antibacterial activity against Pseudomonas aeruginosa ATCC 27853; format: functional
Acinetobacter baumannii [11] = assay: Bactericidal activity against Acinetobacter baumannii ATCC 19606 assessed as reduction in colony forming unit at 1 to 4 times MIC measured after 24 hrs; format: functional, organism-based
Acinetobacter baumannii [12] = assay: Antibiofilm activity against Acinetobacter baumannii ATCC 19606 assessed as inhibition of biofilm formation at 0.5 ug/ml by crystal violet assay; format: functional; parameters: scale not given: the % may be the effect or the level left; details: dose 0.5 µg/ml
Acinetobacter baumannii [13] = assay: Induction of resistance development in Acinetobacter baumannii ATCC 19606 assessed as fold increase in MIC measured after 15 passages; format: functional

SMILES	MIC (Bacillus anthracis) [µg/mL]	MIC (Staphylococcus aureus) [µg/mL]	MIC [1] [µg/mL]	MIC (Escherichia coli) [µg/mL]	MIC (Klebsiella pneumoniae) [µg/mL]	MIC (Salmonella enterica) [µg/mL]	MIC (Acinetobacter baumannii [2]) [µg/mL]	MIC (Acinetobacter baumannii [3]) [µg/mL]	hemolysis at 1 h, 8 ug/ml [6] [%]	Activity (Erythrocyte)	Activity (HEK293 [8])	MIC (Enterobacter cloacae) [µg/mL]	MIC (Pseudomonas aeruginosa) [µg/mL]	other results
O=C(O)c1cn(C2CC2)c2cc(N3CCNCC3)c(F)cc2c1=O [CIPROFLOXACIN]	1 (≈ 3.02 µM)	≤ 0.063	≤ 0.063	≤ 0.063	≤ 0.063	≤ 0.063	1 (≈ 3.02 µM)	2 (≈ 6.04 µM)	< 10	Non-Toxic				Activity (Acinetobacter baumannii [4]): Active; Activity (Acinetobacter baumannii [5]): Active; MIC (Acinetobacter baumannii [7]): 2 µg/mL (≈ 6.04 µM)
O=C(NNc1cccc(F)c1)c1ccc2ccccc2n1									< 10		Non-Toxic			Activity (HEK293 [9]): 40%; hemolysis at 1 h, 32 ug/ml [10]: 20%
CCC(=O)NNc1ccc(Cl)cc1	> 64	> 64	> 64	16 (≈ 80.5 µM)	16 (≈ 80.5 µM)	64 (≈ 322 µM)	≤ 0.125	≤ 0.125	< 10	Non-Toxic	Non-Toxic	16 (≈ 80.5 µM)	> 64	
O=C(NNc1cccc(F)c1)c1ccc(F)cn1	> 64	> 64	> 64	64 (≈ 257 µM)	> 64	> 64	0.5 (≈ 2.01 µM)	0.5 (≈ 2.01 µM)	< 10	Non-Toxic	Non-Toxic	> 64	> 64	
O=C(NNc1ccc(F)cc1)c1ccc(F)cn1	> 64	> 64	> 64	64 (≈ 257 µM)	64 (≈ 257 µM)	64 (≈ 257 µM)	0.5 (≈ 2.01 µM)	0.25 (≈ 1 µM)	< 10	Non-Toxic	Non-Toxic	64 (≈ 257 µM)	> 64	
COc1cccc(NNC(=O)c2ccc(F)cn2)c1	> 64	> 64	64 (≈ 245 µM)	> 64	> 64	> 64	0.5 (≈ 1.91 µM)	0.5 (≈ 1.91 µM)	< 10	Non-Toxic	Non-Toxic	> 64	> 64	
O=C(NNc1ccc(Cl)cc1)c1ccc(F)cn1	> 64	> 64	> 64	16 (≈ 60.2 µM)	64 (≈ 241 µM)	64 (≈ 241 µM)	1 (≈ 3.76 µM)	≤ 0.125	< 10	Non-Toxic	Non-Toxic	16 (≈ 60.2 µM)	> 64	Activity (Acinetobacter baumannii [11]): Active; Activity (Acinetobacter baumannii [12]): 30%; Activity (HEK293 [9]): 17%; fold change (FC) (Acinetobacter baumannii [13]): 2
O=C(NNc1ccc(Cl)cc1)c1ccc(F)cc1F	> 64	> 64	> 64	16 (≈ 56.6 µM)	> 64	> 64	0.25 (≈ 0.884 µM)	0.25 (≈ 0.884 µM)	< 10	Non-Toxic	Non-Toxic	16 (≈ 56.6 µM)	> 64	
O=C(NNc1cccc(Cl)c1)c1ccccn1	> 64	> 64	> 64	4 (≈ 16.1 µM)	16 (≈ 64.6 µM)	16 (≈ 64.6 µM)	2 (≈ 8.07 µM)	1 (≈ 4.04 µM)	< 10	Non-Toxic	Non-Toxic	4 (≈ 16.1 µM)	> 64	
O=C(NNc1ccc(Cl)cc1)c1cc2ccccc2[nH]1	> 64	> 64	> 64	> 64	> 64	> 64	0.5 (≈ 1.75 µM)	0.25 (≈ 0.875 µM)	< 10	Non-Toxic	Non-Toxic	> 64	> 64	
CCOC(=O)CNNC(=O)c1ccc2ccccc2n1	> 64	> 64	> 64	> 64	> 64	> 64	> 64	> 64	< 10	Non-Toxic	Non-Toxic	> 64	> 64	
